Source: patent publication US12303614B2, “Compositions and methods for improving mechanical properties of a tissue or for regenerating an injured or diseased tissue” (University of Rochester, priority 2019, dated 2025)
Entries after “also recorded” stand apart in the source; their conditions may differ.

Tests used:
[1] = test system: HH43 chick embryo calcaneal tendons; experiment: Calcaneal tendon elastic modulus by force volume-AFM after in ovo treatment; type: in vivo; conditions: HH43 chick embryos, 48 h; for calcaneal tendon elastic modulus relative to controls: single in ovo injection, vs saline
Experimental: (§1) Fertilized white leghorn eggs (University of Connecticut poultry farm) were incubated at 37° C. under high humidity. For developmental characterizations, eggs were not injected. For other experiments, a single dose of sterile saline (control), 0.2% DMB (rigid paralysis), 0.2% pancuronium bromide (PB) (flaccid paralysis), 0.2% 4-AP (hypermotility), or 0.2% 4-AP and 5 mg BAPN per gram of embryo dry mass (to simultaneously induce hypermotility and inhibition of LOX activity) was injected at the air sac end of an HH43 egg and incubated for another 48 h, as previously described (10). DMB dosage was based on previous studies that paralyzed the embryo without affecting gross development (3). […] At specific timepoints, chick embryos were sacrificed by decapitation and staged based on anatomical features (15). The calcaneal tendon was homogenized in TRIzol LS reagent, snap frozen for protein and enzyme assays, or embedded for cryosectioning.
(§2) Calcaneal tendons of staged embryos were cryoembedded as previously described (10) and cryosectioned at 50 μm thickness.
Force volume-AFM was used to characterize tendon elastic modulus using previously established methods (10). Briefly, tendon cryosections were immersed in PBS to remove O.C.T. A silicon nitride tip probe (˜20 nm radius) with a spring constant of 0.06 N/m (BRUKER, CA) was used on an MFP-3D AFM (ASYLUM RESEARCH, CA) to obtain force curves in a 64×64 2-dimensional array over a 10 μm×10 μm tissue region in the center of the tendon midsubstance with a 1.0 μm indentation trigger point. The sample was indented at 6 μm/s, at which tendon elastic properties were previously characterized with negligible viscous effects (10). Elastic modulus was calculated by fitting force displacement curves at each indentation to the Hertzian model using equations adapted from a previous study (10).

[2] = test system: HH43 chick embryo calcaneal tendons; experiment: Collagen crosslink density analysis (HP/collagen) after paralysis; type: in vivo; conditions: HH43 chick embryos, injections at 0 h and 24 h, 48 h of paralysis
Experimental: Briefly, HH43 chick embryos were either treated with saline (vehicle control), decamethonium bromide (DMB, THERMO FISHER), or pancuronium bromide (PB, THERMO FISHER). Treatments of DMB and PB were performed at 0 h and 24 h by injection through the air-pocket of each egg. After the 48 h of treatments, each embryo was sacrificed by decapitation, was staged, and the calcaneal tendons were dissected for collagen cross-link density analysis. For each biological sample (N=1), 5 tendons were pooled together (5 left calcaneal tendons from 5 chick embryos). In this experiment, collagen crosslink density analysis was performed for biological samples.

HH43 chick embryos = experiment: Gross development: anatomical staging and leg appearance of treated embryos; type: in vivo
Experimental: as §1

[3] = test system: HH43 chick embryo calcaneal tendons; experiment: Fibrillar collagen content and organization by F-SHG two photon microscopy; type: in vivo; conditions: HH43 chick embryos, 48 h
Experimental: as §1, §2
Tendon cryosections were immersed in Ca^2+/Mg^2+-free phosphate buffered saline (PBS) to remove O.C.T. A 20× water objective imaged a 220×220 μm region in the center of tendon midsubstance in PBS. Collagen was characterized by F-SHG at 800 nm excitation, and signal was collected by a photomultiplier tube using a 405DF30 filter. Background was determined with laser off. Background was subtracted from each F-SHG image using MATLAB (MATHWORKS, MA) and then average pixel intensities of each image were calculated to assess collagen content per unit area.

LOX activity = LOX activity assay of calcaneal tendons after in ovo treatment; type: in vivo, chick; conditions: HH43 embryos treated in ovo, 48 h; for reduction of LOX activity levels of calcaneal tendons compared to saline controls: p<0.05
Experimental: as §1
Western blot to semi-quantitatively measure proLOX levels was performed with rabbit anti-proLOX antibody or rabbit anti-β-actin antibody (ABCAM, MA). ProLOX and β-actin levels were quantified by densitometry at ˜50 kDa and ˜40 kDa molecular bands, respectively. LOX activity of each sample was measured using a LOX activity assay kit (ABCAM, MA). Recombinant LOXL2 enzyme (R&D Systems, MN) was used as a positive control for each assay.

chick embryos [4] = experiment: Embryo movement frequency after injection; type: in vivo; conditions: within 1 min of injection, lasted 48 h (data not shown)
Experimental: as §1

chick embryos [5] = conditions: HH36 to HH44 chick embryos, for at least 24 h, previous studies (14); cited from earlier work
[6] = treated at HH43, harvested after 48 h, compared with non-injected HH45
[7] = treated at HH43 for 48 h, N ≥ 6, expected stage HH45

Structure (SMILES)	reduction of calcaneal tendon modulus relative to controls ([1]; paralysis) [fold]	calcaneal tendon elastic modulus relative to controls [1]	hydroxylysyl pyridinoline (HP)/collagen ratio compared to saline-treated tendons [2]	Stage (HH) of embryos at harvest (mean ± standard deviation (std)) (HH43 chick embryos; in vivo) [HH]	gross appearance of legs at harvest (HH43 chick embryos; in vivo)	apparent collagen organization [3]	collagen content relative to controls [3]	LOX activity levels in calcaneal tendons compared to controls (LOX activity)	reduction of LOX activity levels of calcaneal tendons compared to saline controls (LOX activity) [fold]	increase of embryo movement frequency (chick embryos [4]) [%]	increase of calcaneal tendon modulus relative to controls ([1]; hypermotility) [fold]	gross appearance of legs at harvest (HH43 chick embryos; [6])	Stage (HH) of embryos at harvest (mean ± standard deviation (std)) (HH43 chick embryos; [7]) [HH]	hypermotility induced by a single injection (chick embryos [5])
C[N+](C)(C)CCCCCCCCCC[N+](C)(C)C [DMB, decamethonium bromide]	2	significantly reduced	lower	45 ± 0.4	hyperextended digits	Neither treatment affected	Neither treatment affected	significantly reduced	2					
CC(=O)O[C@H]1C[C@@H]2CC[C@@H]3[C@H](CC[C@@]4(C)[C@H]3C[C@H]([N+]3(C)CCCCC3)[C@@H]4OC(C)=O)[C@@]2(C)C[C@@H]1[N+]1(C)CCCCC1 [PB, pancuronium bromide]			lower					significantly lower	2					
Nc1ccncc1 [4-AP, 4-aminopyridine]		significantly upregulated; also recorded: higher				Neither treatment affected; also recorded: appeared normal	Neither treatment affected	no effects		200	2	appeared similar to non-injected HH45 legs	45 ± 0.4	up to 400%
N#CCCN [BAPN, β-aminopropionitrile]		reduced				appeared normal						appeared similar to non-injected HH45 legs	45 ± 0.5	
